The values that follow are results of earlier work, collected in patent publication US20210061712A1, “COMPOSITE STRUCTURAL MATERIAL COMPOSITIONS RESISTANT TO BIODEGRADATION” (The University of British Columbia, priority 2018, published 2021).

For series [1], the system named is Desulfovibrio desulfricans strain. To be noted: pipe's internal wall coated with the oxide in epoxy.

Like-named read-outs stand apart in the source and are kept apart here.

Consider silver oxide, for which the “bacterial corrosion of concrete pipe” value in series [1] is “reduce the bacterial corrosion”. `[Na+].[Na+].[O]=[W](=[O])([O-])[O-]` [sodium tungstate]: the “growth of A. thiooxidans cells” value in the series with A. Thiooxidans cells is given as “completely inhibits the growth”. Take `O=CCCCC=O` [glutaraldehyde]: in the series on SRB species (10 mg/L), the “activity of SRB species” value is “reduced”.

Consider `[Cu+2]` [Cu], for which, in the series with SRB species (20 mg/L), the “activity of SRB species” value is “reduced”. `[Zn+2]` [Zn]: the “activity of SRB species” value in the series on SRB species (20 mg/L) was “reduced”.
